The values below come from PubChem BioAssay (NCI).

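Step 1: Grow cells in 96-well plates. Step 2: Expose to compound for 48 hours at 5 concentrations. Step 3: Interpolate endpoints linearly; if unreached, use highest concentration. TGI denotes the concentration required for complete inhibition of growth.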 Where only a bound is given, the exact number is not on record here.

Test systems include K-562 leukemia; PC-3 prostate; SN12C renal; MDA-MB-435; OVCAR-5 ovarian; NCI/ADR-RES ovarian; HOP-62 NSCLC; SK-OV-3 ovarian; MALME-3M melanoma; SF-539 CNS.
Experiment in all cases: NCI tumour cell line growth inhibition, 48 h

On to `CCOC(=O)c1c(-c2ccc(O)c(OC)c2)c(C#N)c(=S)n(C2OC(CO)C(O)C(O)C2O)c1-c1ccccc1` (stereo not given), for which the TGI with K-562 leukemia, with PC-3 prostate, with SN12C renal, in the test with MDA-MB-435, in the test with OVCAR-5 ovarian and in the test with NCI/ADR-RES ovarian was greater than 100 µM throughout. Moreover, the TGI in the test on HOP-62 NSCLC was greater than 100 µM.

`O=P(O)(O)C(N=C(Nc1ccccc1)Nc1ccccc1)P(=O)(O)O`: the TGI in the test on SK-OV-3 ovarian, with MALME-3M melanoma, with PC-3 prostate, with OVCAR-5 ovarian, in the test with SF-539 CNS and in the test on NCI/ADR-RES ovarian was greater than 100 µM throughout. The TGI in the test with HOP-62 NSCLC was greater than 100 µM.

As for `CC1(C)OC[C@@H](O)[C@H](C#N)CO1`, the TGI with SK-OV-3 ovarian, with K-562 leukemia, in the test with MALME-3M melanoma, in the test with PC-3 prostate, with SN12C renal and with MDA-MB-435 was greater than 100 µM in each case. Moreover, the TGI in the test on OVCAR-5 ovarian, with SF-539 CNS and in the test with HOP-62 NSCLC was greater than 100 µM in each case.

For the compound `C[C@H](CCC(=O)O)[C@H]1CC[C@H]2[C@@H]3C(=O)C[C@@H]4C[C@H](O)CC[C@]4(C)[C@H]3C[C@H](O)[C@]12C`, the TGI in the test with K-562 leukemia, in the test with MALME-3M melanoma, with PC-3 prostate, in the test on SN12C renal, in the test with MDA-MB-435 and in the test with OVCAR-5 ovarian was greater than 100 µM each time. Moreover, the TGI with SF-539 CNS, with NCI/ADR-RES ovarian and with HOP-62 NSCLC was greater than 100 µM in each case.

`C=C1CC(C#N)(C#N)[C@H]2C3CCCC3C[C@@H]12` (stereo not given in full) (tested in a mixture with another compound): the TGI with SK-OV-3 ovarian is greater than 100 µM; with K-562 leukemia it was 82.8 µM; in the test with PC-3 prostate, 97.4 µM; in the test with SN12C renal, 30.5 µM; in the test with MDA-MB-435, 44.5 µM; with SF-539 CNS, 50.2 µM. This compound also yielded a TGI in the test with NCI/ADR-RES ovarian of 48.2 µM.

Take `COC(=O)C(Cc1ccc2c(c1)CCC2)Cc1ccc2c(c1)CCC2`: the TGI with SK-OV-3 ovarian, in the test on K-562 leukemia, in the test on PC-3 prostate, in the test with SN12C renal, in the test on MDA-MB-435 and with OVCAR-5 ovarian was greater than 100 µM in each case. The TGI in the test on SF-539 CNS, in the test on NCI/ADR-RES ovarian and with HOP-62 NSCLC was greater than 100 µM each time.

Take `O=C(O)COc1ccccc1C(=O)Nc1ccccc1`: the TGI with SK-OV-3 ovarian, with K-562 leukemia, in the test with MALME-3M melanoma, with SN12C renal, with OVCAR-5 ovarian and in the test on SF-539 CNS was greater than 100 µM throughout. This compound came in with a TGI in the test on HOP-62 NSCLC greater than 100 µM.

`O=C1OC(C2Cc3ccc4ccccc4c3C2=O)c2ccccc21` (stereo not given): the TGI in the test on K-562 leukemia, in the test on MALME-3M melanoma, in the test with PC-3 prostate, in the test with SN12C renal, in the test with MDA-MB-435 and in the test with OVCAR-5 ovarian was greater than 100 µM in each case. The TGI is 56.5 µM in the test with SF-539 CNS and greater than 100 µM with NCI/ADR-RES ovarian.

With `CC(C)c1cc2c(c(O)c1O)[C@@]1(C(=O)O)CCCC(C)(C)[C@@H]1CC2`, the TGI with SK-OV-3 ovarian is greater than 100 µM; in the test with K-562 leukemia, greater than 100 µM; with PC-3 prostate, 33.9 µM; with SN12C renal, 64.8 µM; in the test with MDA-MB-435, 34.5 µM; with OVCAR-5 ovarian it was 40 µM. The figures for the TGI with SF-539 CNS, with NCI/ADR-RES ovarian and in the test with HOP-62 NSCLC were 38.8 µM, 31.3 µM and 65.2 µM, respectively.

With `CC(c1ccccc1)N1CCN(C(C)c2ccccc2)CC1` (stereo not given), the TGI in the test with K-562 leukemia, in the test on MALME-3M melanoma, in the test on PC-3 prostate, in the test on SN12C renal, with MDA-MB-435 and with OVCAR-5 ovarian was greater than 100 µM throughout. The TGI in the test with NCI/ADR-RES ovarian and with HOP-62 NSCLC was greater than 100 µM in each case.

In the case of `N#CNC(=NCc1ccccc1)N(Cc1ccccc1)Cc1ccccc1`, the TGI in the test with K-562 leukemia was greater than 100 µM; in the test with PC-3 prostate, greater than 100 µM; in the test on SN12C renal, greater than 31.6 µM; in the test with MDA-MB-435 it was greater than 100 µM; in the test on OVCAR-5 ovarian, greater than 31.6 µM; in the test with SF-539 CNS, greater than 31.6 µM. Further, the figures for the TGI in the test on NCI/ADR-RES ovarian and in the test on HOP-62 NSCLC were greater than 100 µM and greater than 31.6 µM, respectively.

In the case of `COC(C)(C)C1(O)CC[C@@H](C)CC1=O` (stereo not given in full), the TGI in the test with SK-OV-3 ovarian, with MALME-3M melanoma, with PC-3 prostate, in the test with SN12C renal, with MDA-MB-435 and in the test on OVCAR-5 ovarian was greater than 100 µM in each case. For the same compound, the TGI in the test with SF-539 CNS and with HOP-62 NSCLC was greater than 100 µM throughout.

Consider `O=C(/C=C/c1ccccc1)Oc1ccc(C(=O)/C=C/c2ccccc2)cc1`, for which the TGI in the test on SK-OV-3 ovarian was greater than 31.6 µM; in the test with K-562 leukemia, greater than 29.8 µM; with PC-3 prostate, greater than 64.9 µM; with SN12C renal it was 15.2 µM; in the test on MDA-MB-435, 18.8 µM; in the test on OVCAR-5 ovarian, 21.4 µM. The results for the TGI with SF-539 CNS, in the test with NCI/ADR-RES ovarian and in the test on HOP-62 NSCLC were 22.3 µM, 21.9 µM and 21.6 µM, respectively.

For the compound `Cc1c2n(c(=O)[nH]c1=O)C1OC(CO)C(N=[N+]=[N-])C1O2` (stereo not given), the TGI in the test with SK-OV-3 ovarian, in the test on K-562 leukemia, in the test with SN12C renal, in the test with SF-539 CNS and in the test with HOP-62 NSCLC was greater than 100 µM throughout.

Turning to `CC1=Cc2cccc(C)c2C(=O)C1=O`, the TGI in the test on SK-OV-3 ovarian stood at 36.8 µM; in the test with MALME-3M melanoma it was 3.26 µM; in the test with SN12C renal, 37.2 µM; in the test with OVCAR-5 ovarian, 34.2 µM; with SF-539 CNS, 15.5 µM; in the test on HOP-62 NSCLC, 30.2 µM.

Regarding `NS(=O)(=O)c1ccc(NC(=S)/N=C/C2=C(O)c3ccccc3C2=O)cc1`, the TGI with SK-OV-3 ovarian, with K-562 leukemia, in the test on MALME-3M melanoma, in the test on PC-3 prostate, in the test on SN12C renal and with MDA-MB-435 was greater than 100 µM each time. Also, the TGI with OVCAR-5 ovarian, with SF-539 CNS and with HOP-62 NSCLC was greater than 100 µM each time.
